Experimental data reported in PMC5862567, “Validating and enabling phosphoglycerate dehydrogenase (PHGDH) as a target for fragment-based drug discovery in PHGDH-amplified breast cancer” (Oncotarget, 2016).
“And” between values parts separate entries of the source, which are not always exact repeats. Equal entries are not always repeated. “Also recorded” adds a separate entry of the source. Where two headings read alike, the source gives them in different places.

Assays:
[1] = target: T1, sPHGDH (aa 3-314), cofactor-binding pocket (Homo sapiens, UniProt O43175); assay: ITC competition experiment (NADH titrated into sPHGDH premixed with fragment); settings: for Kd / ΔH / ΔS: competition ITC, 5 mM fragment, 25 °C; for Kd: 0.5 mM NADH into 0.05 mM sPHGDH, 5 % DMSO; for LE: ΔG per number of non-hydrogen atoms (= #)
T1 construct: the truncated version (sPHGDH, aa 3-314); His6 (N, cleaved yes); TEV protease recognition site (N, cleaved yes); made in house; host or cells: E. coli Rosetta (DE3)
T1 sequence (O43175 3-314): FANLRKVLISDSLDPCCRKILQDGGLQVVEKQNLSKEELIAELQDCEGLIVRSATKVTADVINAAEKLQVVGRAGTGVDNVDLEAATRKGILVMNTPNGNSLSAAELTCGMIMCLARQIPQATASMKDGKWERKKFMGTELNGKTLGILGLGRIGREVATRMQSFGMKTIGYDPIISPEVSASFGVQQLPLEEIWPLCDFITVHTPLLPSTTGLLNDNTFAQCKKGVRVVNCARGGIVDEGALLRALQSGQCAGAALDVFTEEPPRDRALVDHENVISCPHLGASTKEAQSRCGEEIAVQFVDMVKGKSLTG
Protocol: To remove residual bound cofactor, sPHGDH was incubated with 0.5 equivalents of activated charcoal for 30 minutes at room temperature prior to performing the ITC experiments. […] 1 x 0.5 μL, followed by 17 x 2 μL injections of ligands into protein with 120 seconds spacing between the injections was conducted. Titration of 0.5 mM NADH in 5 % DMSO into 0.05 mM sPHGDH in 5 % DMSO was used as reference.

[2] = target: T2, recombinant full-length PHGDH (Homo sapiens, UniProt O43175); assay: Differential scanning fluorimetry (DSF) thermal shift assay, fragment screen; type: binding; parameters: key to Z score: Z-score of Tm shift, in standard deviations from the screen mean; settings: for Z score: average Z score of primary fragment screens by DSF; for ΔTm at 1000 µM: fragment 1 mM, primary DSF screen, 15 μM PHGDH, read-out: ΔTm (screening hit); for ΔTm (repurchased fragment): DSF
T2 construct: encoding for the full-length enzyme (aa 1-533); His6 (N, cleaved yes); TEV protease recognition site (N, cleaved yes); made in house; host or cells: E. coli Rosetta (DE3)
T2 sequence (O43175 1-533): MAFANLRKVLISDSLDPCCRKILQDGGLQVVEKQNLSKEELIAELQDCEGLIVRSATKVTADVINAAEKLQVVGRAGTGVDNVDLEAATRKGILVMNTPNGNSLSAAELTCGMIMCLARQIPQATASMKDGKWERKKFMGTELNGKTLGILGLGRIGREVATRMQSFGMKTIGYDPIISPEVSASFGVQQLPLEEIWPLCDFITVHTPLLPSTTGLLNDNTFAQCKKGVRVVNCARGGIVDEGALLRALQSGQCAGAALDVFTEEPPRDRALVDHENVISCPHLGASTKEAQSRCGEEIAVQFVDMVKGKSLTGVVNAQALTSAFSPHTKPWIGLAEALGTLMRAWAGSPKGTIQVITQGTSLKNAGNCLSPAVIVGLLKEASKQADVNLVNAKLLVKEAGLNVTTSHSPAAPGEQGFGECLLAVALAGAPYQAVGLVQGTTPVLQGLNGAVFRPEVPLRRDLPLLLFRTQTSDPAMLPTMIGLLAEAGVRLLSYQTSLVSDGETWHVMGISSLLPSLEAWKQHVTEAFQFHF
Protocol: In this study a ‘rule-of-three’ [18] compliant library of 600 fragments (CRT Cambridge, UK) was screened against recombinant full-length PHGDH using a differential scanning fluorimetry (DSF) assay. PHGDH has an average melting temperature (Tm) of 54 °C. Fragments were screened at 1 mM in the presence of 1 % DMSO. 1 mM NADH was used as positive control, and gave an increased Tm of 61 °C, corresponding to a Δ Tm of 7 °C (Supplementary Figure S2). Hits were determined based on an average Z-score ≥ 1, i.e. to a change in Tm of PHGDH equal to or greater than one standard deviation of the mean (Supplementary Table S1). Applying this threshold, 42 compounds were classified as hits, which corresponds to a hit rate of […]. A subset of 15 fragments was commercially available and were repurchased and further evaluated in an ITC competition experiment (Figure 3, Table 1, Supplementary Figure S3). The ITC competition experiments confirmed binding of 13 fragments to the cofactor-binding pocket of PHGDH. […] In order to further characterise the hits, and to help us prioritise their use as seeds for further hit-expansion studies, we undertook a crystallographic investigation of their respective binding modes.
The DSF assay was performed in 384-well plates (Corning, black) in 25 mM HEPES, pH 7.5, 100 mM NaCl, 0.5 mM TCEP, 10 x SYPRO® Orange (Thermo Fisher Scientific), in a final volume of 15 μL containing 15 μM PHGDH and […]. The fragments were added from a 100 mM master stock in 100 % DMSO to a final concentration of 1 mM using an ECHO® acoustic liquid handler (Labcyte). Reference wells contained DMSO only and 1 mM NADH was used as positive control.
The heat denaturation profile of PHGDH was followed using the fluorescence of Sypro Orange with excitation and emission wavelengths of 470 and 570 nm, respectively. Analysis was performed in GraphPad Prism using the Boltzmann equation to determine the melting temperature, Tm, which is the inflection point of the sigmoidal denaturation curve.

PHGDH = settings: cited from earlier work

Compound | Kd ([1]; read-out: Kd) | ΔH [1] | ΔS [1] | LE [1] | Z score [2] | ΔTm at 1000 µM [2] | ΔTm (repurchased fragment) [2] | Kd [1] | fold weaker binding affinity compared to 17 ([1]; competitive ITC Kd, versus 17) | fold reduced affinity compared to fragment 16 ([1]; competitive ITC Kd, versus 16) | ΔTm ([2]; 1 mM NADH positive control) | Tm of PHGDH in presence of compound ([2]; 1 mM NADH positive control, PHGDH alone Tm 54 °C) | mode of PHGDH inhibition (PHGDH)
O=C1COc2cc(O)ccc21 [Fragment 8, 6-Hydroxy-2,3-dihydrobenzo[b] furan-3-one] | 5.9 ± 1.5 mM | -69.96 kcal/mol | -1.02 kJ (mol x K) | 0.28 kcal/(mol·heavy atom) | 1.5 ± 0.4 | 1.7 ± 0.6 °C | 0.4 ± 0.4 °C | – | – | – | – | – | –
Oc1ncnc2cccc(F)c12 [Fragment 4, 5-Fluoro-4-hydroxy quinazoline] | 12.8 ± 2.7 mM | 1.98 kcal/mol | -0.01 kJ (mol x K) | 0.21 kcal/(mol·heavy atom) | 1.0 ± 0.8 | 2.4 ± 1.1 °C | 0.2 ± 0.3 °C | – | – | – | – | – | –
c1ccc(Cn2ccnc2)cc1 [Fragment 12, 1-Benzylimidazole] | 11.8 ± 9.6 mM | -15.4 kcal/mol | -0.25 kJ (mol x K) | 0.22 kcal/(mol·heavy atom) | 1.1 ± 0.2 | 1.3 ± 0.9 °C | -0.6 ± 0.4 °C | – | – | – | – | – | –
NC(=O)c1ccc(F)c(Cl)c1 [Fragment 5, 3-Chloro-4-fluorobenzamide] | 1.6 ± 0.2 mM | -1.29 kcal/mol | -0.07 kJ (mol x K) | 0.35 kcal/(mol·heavy atom) | 1.0 ± 0.8 | 2.3 ± 1 °C | -0.1 ± 0.2 °C | – | – | – | – | – | –
CCOC(=O)c1sc(NC(=O)c2ccco2)c(SC#N)c1C [CBR-5884] | – | – | – | – | – | – | – | – | – | – | – | – | non-competitive
CCc1nc(C)c[nH]1 [Fragment 2, 2-Ethyl-4-methylimidazole] | – | – | – | – | 1.0 ± 1.0 | 2 ± 2.1 °C | -0.1 ± 0.2 °C | No competition | – | – | – | – | –
Cn1ccc2cc(N)ccc21 [Fragment 9, 5-Amino-1-methyl-1H-indole] | 11.1 ± 5 mM | -24.38 kcal/mol | -0.38 kJ (mol x K) | 0.24 kcal/(mol·heavy atom) | 1.8 ± 1.4 | 2 ± 1.2 °C | 1.2 ± 0.4 °C | – | – | – | – | – | –
Cc1cccc2cc[nH]c12 [Fragment 6, 7-Methyl-1H-indole] | 1.5 ± 0.2 mM | -380.95 kcal/mol | -5.40 kJ (mol x K) | 0.38 kcal/(mol·heavy atom) | 1.1 ± 0.7 | 2.4 ± 1.2 °C | 0.2 ± 0.2 °C | – | – | – | – | – | –
Oc1noc2ccc(Br)cc12 [Fragment 20] | – | – | – | – | – | – | – | no binding affinity was detected; also recorded: Compound precipitated | – | – | – | – | –
Cc1cncc(Oc2cccc(CO)c2)n1 [Fragment 7, [3-(6-Methylpyrazin-2-yl)oxyphenyl] methanol] | 16.6 ± 10.4 mM | 3.78 kcal/mol | 0.02 kJ (mol x K) | 0.15 kcal/(mol·heavy atom) | 1.2 ± 0.9 | 1.8 ± 1.7 °C | -0.3 ± 0.2 °C | – | – | – | – | – | –
Cn1nc(-c2ccccc2)cc1N [Fragment 3, 1-Methyl-3-phenyl-1H-pyrazol-5-amine] | 5.8 ± 2 mM | -111.7 kcal/mol | -1.61 kJ (mol x K) | 0.23 kcal/(mol·heavy atom) | 1.0 ± 0.4 | 2.2 ± 0.8 °C | -0.2 ± 0.2 °C | – | – | – | – | – | –

The next lines start with results.

Kd ([1]; read-out: Kd) | ΔH [1] | ΔS [1] | LE [1] | Z score [2] | ΔTm at 1000 µM [2] | ΔTm (repurchased fragment) [2] | Kd [1] | fold weaker binding affinity compared to 17 ([1]; competitive ITC Kd, versus 17) | fold reduced affinity compared to fragment 16 ([1]; competitive ITC Kd, versus 16) | ΔTm ([2]; 1 mM NADH positive control) | Tm of PHGDH in presence of compound ([2]; 1 mM NADH positive control, PHGDH alone Tm 54 °C) | Compound | mode of PHGDH inhibition (PHGDH)
6.5 ± 4.7 mM | -91.44 kcal/mol | -1.33 kJ (mol x K) | 0.3 kcal/(mol·heavy atom) | 1.4 ± 0.7 | 2.5 ± 0.7 °C | 0.2 ± 0.3 °C | – | – | – | – | – | Oc1noc2ccccc12 [Fragment 16, 3-Hydroxy benzisoxazole] | –
– | -62.33 kcal/mol | -0.91 kJ (mol x K) | – | 1.0 ± 0.9 | 1.4 ± 0.6 °C | -0.8 ± 0.3 °C | – | – | – | – | – | Nc1cccc(-c2cnco2)c1 [Fragment 10, 3-(1,3-oxazol-5-yl)aniline] | –
26 mM and 26.2 mM | -11.2 kcal/mol | -0.19 kJ (mol x K) | 0.2 kcal/(mol·heavy atom) | 1.1 ± 0.2 | 1.4 ± 0.5 °C | 0.4 ± 0.3 °C | – | – | – | – | – | Cc1ccc(F)cc1C(=O)O [Fragment 14, 5-Fluoro-2-methylbenzoic acid] | –
15.4 ± 10.2 mM | -45.43 kcal/mol | -0.67 kJ (mol x K) | 0.22 kcal/(mol·heavy atom) | – | – | – | – | 6 fold | – | – | – | Oc1noc2ccc(F)cc12 [Fragment 19, 5-fluoro-3-hydroxybenzisoxazole] | –
– | – | – | – | 1.4 ± 0.2 | 0.8 ± 0.1 °C | 0.3 ± 0.1 °C | No competition | – | – | – | – | Oc1ccnc(O)c1 [Fragment 13, 2,4.Dihydroxy pyridine] | –
2.4 ± 0.7 mM | -362.64 kcal/mol | -5.14 kJ (mol x K) | 0.32 kcal/(mol·heavy atom) | – | – | – | – | – | – | – | – | Oc1noc2cc(Cl)ccc12 [Fragment 17, 6-chloro-3-hydroxybenzisoxazole] | –
11.5 ± 8.4 mM | -2.75 kcal/mol | -0.08 kJ (mol x K) | 0.18 kcal/(mol·heavy atom) | 1.1 ± 0.6 | 1.7 ± 0.7 °C | -0.6 ± 0.6 °C | – | – | – | – | – | Cc1cncc(Oc2cccc(N)c2)n1 [Fragment 11, 3-(6-Methylpyrazin-2-yl)oxyaniline] | –
15.9 ± 7.4 mM | -46.44 kcal/mol | -0.67 kJ (mol x K) | 0.22 kcal/(mol·heavy atom) | – | – | – | – | – | 2.5 fold | – | – | Cc1cccc2c(O)noc12 [Fragment 18] | –
– | – | – | – | – | – | – | – | – | – | 7 °C | 61 °C | NC(=O)C1=CN([C@@H]2O[C@H](COP(=O)(O)OP(=O)(O)OC[C@H]3O[C@@H](n4cnc5c(N)ncnc54)[C@H](O)[C@@H]3O)[C@@H](O)[C@H]2O)C=CC1 [NADH, reference compound] | –
2.8 ± 1.6 mM | -419.02 kcal/mol | -5.93 kJ (mol x K) | 0.27 kcal/(mol·heavy atom) | 1.2 ± 0.3 | 1.3 ± 0.2 °C | -0.2 ± 0.4 °C | – | – | – | – | – | COc1ccc(NC(C)=O)cc1Cl [Fragment 15, N-(3-chloro-4-methoxyphenyl) acetamide] | –
